This note sets out measurements from article PMC6214026, “PSMA-Oriented Target Delivery of Novel Anticancer Prodrugs: Design, Synthesis, and Biological Evaluations of Oligopeptide-Camptothecin Conjugates” (International Journal of Molecular Sciences, 2018).

For orientation: IC50 means the concentration at which inhibition is half-maximal.

The structures appear in SMILES notation. Where two headings read alike, the source gives them in different places.

Assay [1] has as its system LNCaP-FGC cells (PSMA-expressing). Kind of assay: MTT cytotoxicity assay, LNCaP-FGC. The class given is cell-based, human. Conditions: 72 h, read-out: IC50 LNCaP-FGC. Here is the method:
(§1) The cytotoxicities of PSMA-activated prodrug CPT-HT-J-ZLn and PSMA hydrolysate CPT-D-GLn were evaluated by MTT assays on PSMA-expressing (PSMA^+) cancer cell LNCaP-FGC, non-PSMA-expressing (PSMA^−) cancer cells HepG2, MCF-7, Hela, DU145, and PC-3, and normal cells MDCK, LO2, respectively, using CPT as a positive control.
(§2) The human prostate cancer cell line (LNCaP-FGC), human prostate cancer cell line (PC-3), human prostate cancer cell line (DU-145), human breast cancer cell line (MCF-7), human hepatocellular carcinoma cell line (HepG2), human cervical cancer cell line (Hela), were obtained from the Chinese Academy of Medical Sciences and Peking Union Medical College. The cultures of the cells were maintained as a monolayer in RPMI 1640 or DMEM supplemented with 10% (v/v) heat inactivated fetal bovine serum and 1% (v/v) enicillin/streptomycin (Corning, New York, NY, USA) and incubated at 37 °C in a humidified atmosphere with 5% CO2. The tested compounds were dissolved in DMSO (Sigma, St. Louis, MO, USA) and added at required concentrations to the cell culture.
(§3) The cytotoxicity of all the tested compounds was evaluated in vitro via the MTT method against PSMA-expressing LNCaP-FGC cells and non-PSMA-expressing cells HepG2, Hela, MCF-7, DU145, PC-3 cells using CPT as the positive control. Tumor cells growing in the logarithmic phase were seeded in 96-well plates at a density 3 × 10^3 cells/well and incubated overnight. The following day, cells were then treated with serial dilutions of the tested compounds for 72 h. At the end of this incubation, 20 µL of 5 mg/mL methylthiazol tetrazolium (MTT) was added to each well and incubation proceeded at 37 °C for another 4 h. After the supernatant medium was thrown away, 150 µL dimethylsulphoxide (DMSO) were added to each well and absorbance was measured at 490 nm using a plate reader (BIORAD 550 spectrophotometer, Bio-rad Life Science Development Ltd., Berkeley, CA, USA). Experiments were performed in triplicate and the values were the average of three (n = 3) independent experiments. The concentration of the compound that results in 50% growth inhibition corresponds to the IC50. Tumor cell growth inhibitory rate was calculated using Equation (1): % inhibition = (1 − Sample group OD/Control group OD) × 100%(1)

The test system of assay [2] is HepG2 cells (non-PSMA-expressing). As to the kind of experiment: cells. The conditions noted are these: read-out: IC50 HepG2. Format: cell-based, human. Here is the method: as §1, §2, §3
The subject of assay [3] is PC-3 cells (non-PSMA-expressing). Kind of assay: cells. The class given is cell-based, human. Conditions: read-out: IC50 PC-3. Here is the method: as §1, §2, §3
The test system of assay [4] is MCF-7 cells (non-PSMA-expressing). As to the kind of experiment: cells. The conditions noted are these: read-out: IC50 MCF-7. Format: cell-based, human. Here is the method: as §1, §2, §3
Assay [5] relates to DU145 cells (non-PSMA-expressing). Kind of assay: cells. The class given is cell-based, human. The conditions noted are these: read-out: IC50 DU145. Here is the method: as §1, §2, §3
For assay [6], the system named is MDCK cells. Kind of assay: cells. The class given is cell-based. The conditions noted are these: 72 h, read-out: IC50 MDCK. On the procedure:
as §1, §3

Assay [7] deals with LO2 cells. Kind of assay: cells. The class given is cell-based. Conditions: read-out: IC50 LO2. Here is the method:
as §1, §3

In assay [8] the test system is HeLa cells (non-PSMA-expressing). Kind of assay: MTT cytotoxicity assay, HeLa. Format: cell-based, human. The conditions noted are these: 72 h, mean ± SD, n = 3. Here is the method: as §1
The tested compounds were dissolved in DMSO (Sigma, St. Louis, MO, USA) and added at required concentrations to the cell culture.
as §3, with “experiments.” for “experiments. The concentration of the compound that results in 50% growth inhibition corresponds to the IC50. Tumor cell growth inhibitory rate was calculated using Equation (1): % inhibition = (1 − Sample group OD/Control group OD) × 100%(1)”

`CC[C@@]1(OC(=O)CN)C(=O)OCc2c1cc1n(c2=O)Cc2cc3ccccc3nc2-1` [CPT-B-L2, (S)-4-ethyl-3,14-dioxo-3,4,12,14-tetrahydro-1H-pyrano[3′,4′:6,7]indolizino[1,2-b]quinolin-4-yl glycinate]: the IC50 in assay [1] (Homo sapiens) is 0.38 ± 0.1 µM; in assay [2] (Homo sapiens, HepG2, 72 h), over 40 µM; in assay [3] (Homo sapiens, PC-3, 72 h) it was 5.19 ± 0.3 µM; in assay [4] (Homo sapiens, MCF7, 72 h), 4.11 ± 3.09 µM; in assay [5] (Homo sapiens, DU-145, 72 h), 0.12 ± 0.09 µM; in assay [6] (Canis lupus familiaris, MDCK) it was 5.16 ± 1.2 µM. Moreover, the IC50 came to 5.61 ± 1.4 µM in assay [7] (Homo sapiens, L02, 72 h) and 10 ± 2 µM in assay [8] (Homo sapiens, HeLa).
Regarding `CC[C@@]1(OC(=O)CCCN)C(=O)OCc2c1cc1n(c2=O)Cc2cc3ccccc3nc2-1` [CPT-B-L4, (S)-4-ethyl-3,14-dioxo-3,4,12,14-tetrahydro-1H-pyrano[3′,4′:6,7]indolizino[1,2-b]quinolin-4-yl 4-aminobutanoate], the concentration for half-maximal inhibition (IC50) in assay [1] (Homo sapiens) was 0.37 ± 0.02 µM; in assay [2] (Homo sapiens, HepG2, 72 h) it was over 40 µM; in assay [3] (Homo sapiens, PC-3, 72 h), 1 ± 0.1 µM; in assay [4] (Homo sapiens, MCF7, 72 h), 1.58 ± 2.42 µM; in assay [5] (Homo sapiens, DU-145, 72 h), 0.25 ± 0.13 µM; in assay [6] (Canis lupus familiaris, MDCK), 3.2 ± 2 µM. Also, the IC50 in assay [7] (Homo sapiens, L02, 72 h) worked out at 1.36 ± 0.3 µM; in assay [8] (Homo sapiens, HeLa) it was 4.37 ± 0.5 µM.
As to `CC[C@@]1(OC(=O)CCCCCN)C(=O)OCc2c1cc1n(c2=O)Cc2cc3ccccc3nc2-1` [CPT-B-L6, (S)-4-ethyl-3,14-dioxo-3,4,12,14-tetrahydro-1H-pyrano[3′,4′:6,7]indolizino[1,2-b]quinolin-4-yl 6-aminohexanoate], the IC50 was 1.89 ± 0.2 µM in assay [1] (Homo sapiens); over 40 µM in assay [2] (Homo sapiens, HepG2, 72 h); 15.9 ± 1.73 µM in assay [3] (Homo sapiens, PC-3, 72 h); 6.76 ± 1.47 µM in assay [4] (Homo sapiens, MCF7, 72 h); 3.55 ± 0.95 µM in assay [5] (Homo sapiens, DU-145, 72 h); 5.44 ± 3 µM in assay [6] (Canis lupus familiaris, MDCK). Besides, the IC50 in assay [7] (Homo sapiens, L02, 72 h) worked out at 2.71 ± 0.38 µM; in assay [8] (Homo sapiens, HeLa) it was 15 ± 0.8 µM.
Consider `CC[C@@]1(OC(=O)CCCCCCCCCCCN)C(=O)OCc2c1cc1n(c2=O)Cc2cc3ccccc3nc2-1` [CPT-B-L12, (S)-4-ethyl-3,14-dioxo-3,4,12,14-tetrahydro-1H-pyrano[3′,4′:6,7]indolizino[1,2-b]quinolin-4-yl 12-aminododecanoate], for which the IC50 in assay [1] (Homo sapiens) was 1.93 ± 1.03 µM; in assay [2] (Homo sapiens, HepG2, 72 h) it was over 40 µM; in assay [3] (Homo sapiens, PC-3, 72 h), 6.45 ± 0.42 µM; in assay [4] (Homo sapiens, MCF7, 72 h), 5.76 ± 0.86 µM; in assay [5] (Homo sapiens, DU-145, 72 h), 7.32 ± 1.43 µM; in assay [6] (Canis lupus familiaris, MDCK) it was 5.2 ± 0.88 µM. The IC50 in assay [7] (Homo sapiens, L02, 72 h) was 2.63 ± 0.84 µM; in assay [8] (Homo sapiens, HeLa), over 40 µM.
For `CC[C@@]1(OC(=O)CNC(=O)[C@@H](N)CCC(=O)O)C(=O)OCc2c1cc1n(c2=O)Cc2cc3ccccc3nc2-1` [CPT-D-GL2, (S)-4-amino-5-((2-(((S)-4-ethyl-3,14-dioxo-3,4,12,14-tetrahydro-1H-pyrano[3′,4′:6,7]indolizino[1,2-b]quinolin-4-yl)oxy)-2-oxoethyl)amino)-5-oxopentanoic acid], the IC50 in assay [1] (Homo sapiens) was 3.68 ± 0.36 µM; in assay [2] (Homo sapiens, HepG2, 72 h), over 40 µM; in assay [3] (Homo sapiens, PC-3, 72 h), 1.5 ± 0.2 µM; in assay [4] (Homo sapiens, MCF7, 72 h), 0.3 ± 0.05 µM; in assay [5] (Homo sapiens, DU-145, 72 h), 0.4 ± 0.05 µM; in assay [6] (Canis lupus familiaris, MDCK), 0.26 ± 0.14 µM. In addition, the IC50 is 0.16 ± 0.07 µM in assay [7] (Homo sapiens, L02, 72 h) and over 40 µM in assay [8] (Homo sapiens, HeLa).
Take `CC[C@@]1(OC(=O)CCCNC(=O)[C@@H](N)CCC(=O)O)C(=O)OCc2c1cc1n(c2=O)Cc2cc3ccccc3nc2-1` [CPT-D-GL4, (S)-4-amino-5-((4-(((S)-4-ethyl-3,14-dioxo-3,4,12,14-tetrahydro-1H-pyrano[3′,4′:6,7]indolizino[1,2-b]quinolin-4-yl)oxy)-4-oxobutyl)amino)-5-oxopentanoic acid]: the half-inhibitory concentration (IC50) in assay [1] (Homo sapiens) is 3.68 ± 0.5 µM; in assay [2] (Homo sapiens, HepG2, 72 h), over 40 µM; in assay [3] (Homo sapiens, PC-3, 72 h) it was 14.9 ± 1 µM; in assay [4] (Homo sapiens, MCF7, 72 h), 4.03 ± 0.3 µM; in assay [5] (Homo sapiens, DU-145, 72 h) it was 4.89 ± 0.01 µM; in assay [6] (Canis lupus familiaris, MDCK), 0.23 ± 0.1 µM. Further, the 50% inhibitory concentration (IC50) in assay [7] (Homo sapiens, L02, 72 h) is 0.4 ± 0.15 µM; in assay [8] (Homo sapiens, HeLa), over 40 µM.
`CC[C@@]1(OC(=O)CCCCCNC(=O)[C@@H](N)CCC(=O)O)C(=O)OCc2c1cc1n(c2=O)Cc2cc3ccccc3nc2-1` [CPT-D-GL6, (S)-4-amino-5-((6-(((S)-4-ethyl-3,14-dioxo-3,4,12,14-tetrahydro-1H-pyrano[3′,4′:6,7]indolizino[1,2-b]quinolin-4-yl)oxy)-6-oxohexyl)amino)-5-oxopentanoic acid]: the IC50 is 8.17 ± 1 µM in assay [1] (Homo sapiens); over 40 µM in assay [2] (Homo sapiens, HepG2, 72 h); 12.5 ± 0.8 µM in assay [3] (Homo sapiens, PC-3, 72 h); 17.2 ± 3 µM in assay [4] (Homo sapiens, MCF7, 72 h); 3.97 ± 0.16 µM in assay [5] (Homo sapiens, DU-145, 72 h); 4 ± 0.42 µM in assay [6] (Canis lupus familiaris, MDCK). Further, the IC50 in assay [7] (Homo sapiens, L02, 72 h) is 1.5 ± 0.6 µM; in assay [8] (Homo sapiens, HeLa), over 40 µM.
`CC[C@@]1(OC(=O)CCCCCCCCCCCNC(=O)[C@@H](N)CCC(=O)O)C(=O)OCc2c1cc1n(c2=O)Cc2cc3ccccc3nc2-1` [CPT-D-GL12, (S)-4-amino-5-((12-(((S)-4-ethyl-3,14-dioxo-3,4,12,14-tetrahydro-1H-pyrano[3′,4′:6,7]indolizino[1,2-b]quinolin-4-yl)oxy)-12-oxododecyl)amino)-5-oxopentanoic acid]: the IC50 was 2.1 ± 0.68 µM in assay [1] (Homo sapiens); over 40 µM in assay [2] (Homo sapiens, HepG2, 72 h); over 40 µM in assay [3] (Homo sapiens, PC-3, 72 h); over 40 µM in assay [4] (Homo sapiens, MCF7, 72 h); 7.38 ± 0.2 µM in assay [5] (Homo sapiens, DU-145, 72 h); 5.1 ± 1.1 µM in assay [6] (Canis lupus familiaris, MDCK). Besides, the IC50 in assay [7] (Homo sapiens, L02, 72 h) turned out to be 3.8 ± 0.8 µM; in assay [8] (Homo sapiens, HeLa) it was 25.5 ± 1 µM.
As for `CC[C@@]1(OC(=O)CNC(=O)[C@H](CCC(=O)N[C@@H](CCC(=O)N[C@@H](CCC(=O)N[C@@H](CC(=O)OC(C)(C)C)C(=O)N[C@@H](CCC(=O)OC(C)(C)C)C(=O)OC(C)(C)C)C(=O)OC(C)(C)C)C(=O)OC(C)(C)C)NC(=O)OC(C)(C)C)C(=O)OCc2c1cc1n(c2=O)Cc2cc3ccccc3nc2-1` [CPT-HT-J-L2, 14,22,24,9-tetra-tert-butyl 1-((S)-4-ethyl-3,14-dioxo-3,4,12,14-tetrahydro-1H-pyrano[3′,4′:6,7]indolizino[1,2-b]quinolin-4-yl) (4S,9S,14S,19S,22S)-19-(2-(tert-butoxy)-2-oxoethyl)-4-((tert-butoxycarbonyl)amino)-3,7,12,17,20-pentaoxo-2,8,13,18,21-pentaazatetracosane-1,9,14,22,24-pentacarboxylate], the IC50 is over 40 µM in assay [1] (MTT, mean ± SD, n = 3, PSMA+); over 40 µM in assay [2] (MTT, 72 h, mean ± SD, n = 3); over 40 µM in assay [3] (MTT, 72 h, mean ± SD, n = 3); over 40 µM in assay [4] (MTT, 72 h, mean ± SD, n = 3); over 40 µM in assay [5] (MTT, 72 h, mean ± SD, n = 3); over 40 µM in assay [6] (MTT, normal cells). Moreover, the IC50 in assay [7] (MTT, 72 h, normal cells) was over 40 µM; in assay [8], over 40 µM.
